According to ChEMBL document CHEMBL5046234, “Discovery of novel TrkA allosteric inhibitors: Structure-based virtual screening, biological evaluation and preliminary SAR studies” (Eur J Med Chem, 2022):

Legend:
[1] = target: BDNF/NT-3 growth factors receptor (Homo sapiens, UniProt Q16620); test: Inhibition of TRKB (unknown origin) by PathHunter Enzyme Fragment Complementation assay
[2] = test system: BaF3; test: Antiproliferative activity against mouse BaF3 cells expressing CD74 fused TRKA assessed as cell growth inhibition incubated for 72 hrs by CCK8 assay; format: functional, cell-based; settings: BaF3, 72 h
[3] = test system: BaF3; test: Antiproliferative activity against mouse BaF3 cells assessed as cell growth inhibition incubated for 72 hrs by CCK8 assay; format: functional, cell-based; settings: BaF3, 72 h
[4] = test system: BaF3; test: Antiproliferative activity against mouse BaF3 cells expressing MPRIP fused TRKA assessed as cell growth inhibition incubated for 72 hrs by CCK8 assay; format: functional, cell-based; settings: BaF3, 72 h
[5] = target: High affinity nerve growth factor receptor (Homo sapiens) (UniProt P04629); test: Inhibition of CD74 fused TRKA (unknown origin) expressed in mouse BaF3 cells assessed as inhibition of ERK phosphorylation by western blot analysis; format: cell-based
[6] = target: High affinity nerve growth factor receptor (Homo sapiens) (UniProt P04629); test: Inhibition of CD74 fused TRKA (unknown origin) expressed in mouse BaF3 cells assessed as inhibition of AKT phosphorylation by western blot analysis; format: cell-based; settings: dose 0.08-50 µM
[7] = test system: BaF3; test: Antiproliferative activity against mouse BaF3 cells expressing QKI fused TRKB assessed as cell growth inhibition incubated for 72 hrs by CCK8 assay; format: functional, cell-based; settings: BaF3, 72 h
[8] = target: High affinity nerve growth factor receptor (Homo sapiens) (UniProt P04629); test: Inhibition of CD74 fused TRKA (unknown origin) autophosphorylation expressed in mouse BaF3 cells by western blot analysis; format: cell-based; settings: dose 0.08-50 µM
[9] = test system: BaF3; test: Antiproliferative activity against mouse BaF3 cells expressing EML4 fused TRKC assessed as cell growth inhibition incubated for 72 hrs by CCK8 assay; format: functional, cell-based; settings: BaF3, 72 h
[10] = target: High affinity nerve growth factor receptor (Homo sapiens) (UniProt P04629); test: Inhibition of CD74 fused TRKA (unknown origin) expressed in mouse BaF3 cells assessed as inhibition of PLCgamma1 phosphorylation by western blot analysis; format: cell-based; settings: dose 0.08-50 µM

Chain of High affinity nerve growth factor receptor (Homo sapiens) (P04629 33-796 limits assumed): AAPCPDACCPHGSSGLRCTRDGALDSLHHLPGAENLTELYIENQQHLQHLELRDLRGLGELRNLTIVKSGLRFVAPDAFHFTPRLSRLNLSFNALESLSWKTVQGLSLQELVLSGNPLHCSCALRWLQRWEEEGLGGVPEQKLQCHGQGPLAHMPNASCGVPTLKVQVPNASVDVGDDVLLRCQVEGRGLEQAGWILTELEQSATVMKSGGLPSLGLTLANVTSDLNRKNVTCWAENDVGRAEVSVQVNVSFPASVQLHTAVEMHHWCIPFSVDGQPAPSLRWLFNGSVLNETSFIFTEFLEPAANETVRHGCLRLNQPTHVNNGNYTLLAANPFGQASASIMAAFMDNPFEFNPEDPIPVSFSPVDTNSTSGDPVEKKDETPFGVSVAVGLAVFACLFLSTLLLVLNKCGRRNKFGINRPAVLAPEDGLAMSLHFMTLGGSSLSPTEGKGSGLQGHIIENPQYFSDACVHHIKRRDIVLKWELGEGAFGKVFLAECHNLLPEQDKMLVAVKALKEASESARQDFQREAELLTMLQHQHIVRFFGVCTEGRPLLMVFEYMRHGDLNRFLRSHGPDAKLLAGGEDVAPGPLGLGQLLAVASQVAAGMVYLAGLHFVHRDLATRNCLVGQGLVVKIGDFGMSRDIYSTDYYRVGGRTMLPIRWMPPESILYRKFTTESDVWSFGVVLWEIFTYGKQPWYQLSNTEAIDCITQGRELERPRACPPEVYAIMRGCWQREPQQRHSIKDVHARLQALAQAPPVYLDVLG
Chain of BDNF/NT-3 growth factors receptor (Q16620 whole entry, the tested form may be a part): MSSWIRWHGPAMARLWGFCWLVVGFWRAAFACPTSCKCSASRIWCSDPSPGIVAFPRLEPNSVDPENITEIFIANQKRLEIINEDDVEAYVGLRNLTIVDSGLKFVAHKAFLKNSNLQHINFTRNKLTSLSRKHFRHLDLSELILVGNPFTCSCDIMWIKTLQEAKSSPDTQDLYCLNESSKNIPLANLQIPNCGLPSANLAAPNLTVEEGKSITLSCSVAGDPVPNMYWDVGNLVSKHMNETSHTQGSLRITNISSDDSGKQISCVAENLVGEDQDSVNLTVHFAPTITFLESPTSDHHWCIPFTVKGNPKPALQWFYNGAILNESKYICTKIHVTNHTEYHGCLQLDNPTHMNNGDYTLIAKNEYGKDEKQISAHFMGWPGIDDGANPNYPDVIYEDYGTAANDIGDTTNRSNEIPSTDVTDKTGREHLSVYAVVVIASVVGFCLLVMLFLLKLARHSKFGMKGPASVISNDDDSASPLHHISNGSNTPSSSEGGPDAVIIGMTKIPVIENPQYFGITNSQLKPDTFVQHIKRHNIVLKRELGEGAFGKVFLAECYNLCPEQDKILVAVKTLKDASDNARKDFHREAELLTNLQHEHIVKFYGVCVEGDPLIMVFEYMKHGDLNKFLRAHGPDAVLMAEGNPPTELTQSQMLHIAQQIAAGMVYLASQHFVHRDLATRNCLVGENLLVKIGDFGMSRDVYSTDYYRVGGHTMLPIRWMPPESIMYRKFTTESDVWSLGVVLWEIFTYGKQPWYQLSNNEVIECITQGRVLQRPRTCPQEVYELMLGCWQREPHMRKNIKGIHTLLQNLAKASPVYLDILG

For Cc1ncc(NC(=O)NC2c3ccccc3-c3ccccc32)c(-c2ccccc2)n1, the IC50 [1] was 81 µM.

CN1CCN(c2ccc(NC(=O)c3ccc(Cl)c(N4CCCC4=O)c3)cn2)CC1 showed an IC50 [2] of 1.55 µM.

Compound CN1CCN(c2cc(-c3ccccc3)c(NC(=O)c3cc(N4CCCC4=O)c(Cl)cc3Cl)cn2)CC1 has an IC50 [2] greater than 10 µM.

CN1CCN(c2ccc(NC(=O)c3cc(N4CCCC4=O)c(Cl)cc3Cl)cn2)CC1 was tested, and the IC50 [2] was 1.83 µM.

Cc1ccc(C(=O)Nc2ccc(N3CCCC3=O)nc2)cc1N1CCCC1=O showed an IC50 [2] of 7.23 µM.

For Cc1ccc(C(=O)Nc2ccc(N3CCN(C)CC3)nc2)cc1N1CCCC1=O, the IC50 [2] was 1.99 µM.

Cc1ccc(C(=O)Nc2ccc(N3CCN(C4CCCC4)C3=O)nc2)cc1N1CCCC1=O was tested, and the IC50 [3] was greater than 10 µM, the IC50 [4] was 3.32 µM and the inhibition [5] was “Dose-Dependent Effect”. For the same compound, the inhibition [6] was “Dose-Dependent Effect”, the IC50 [7] was 6.17 µM and the IC50 [2] was 2.91 µM. For the same compound, the inhibition [8] was “Dose-Dependent Effect”, the IC50 [9] was greater than 10 µM and the inhibition [10] was “Dose-Dependent Effect”.
